Literature values as cited in article PMC4433633, “A Heparan Sulfate-Binding Cell Penetrating Peptide for Tumor Targeting and Migration Inhibition” (BioMed Research International, 2015).

Settings: ref [56]
Description: Although CPPs as noninvasive agents have promising biomedical potential for molecular delivery, they are mostly unfeasible for in vivo researches due to nonspecificity of their highly cationic characteristic such as TAT peptide. Due to high uptake rates in vitro and relatively low specificity in vivo of most CPPs, conventional CPPs would be designed for topical applications in CPP-based delivery (Table 1). […] Although TAT peptide (46–57) de ...

Sequence: SYGRKKRRQRRR [TAT peptide (46–57), multifunctional CPP […]]
- target specificity in vivo: low target specificity in vivo
